Measured values published in US6476243B1, “Perfluorinated esters of alkanoyl L-carnitine for the preparation of cationic lipids for the intracellular delivery of pharmacologically active compounds” (Sigma-Tau Industrie Farmaceutiche Riunite S.p.A., priority 1998, dated 2002).

How the values were obtained:
Assay type in all cases: cell-based, human
Conditions in all cases: for β-Gal: liposome-DNA complex, with serum
[1] = tested on: HeLa cells; experiment: pCMV-β-Gal plasmid DNA transfection mediated by ST1223 cationic liposomes, β-galactosidase by ELISA, HeLa cells
Procedure: (§1) Liposomes were prepared starting with 200 mg of ST1223, synthesised according to the procedure described in EXAMPLE 1 and solubilised in 50 mL of chloroform (solubilisation phase). The solvent was then eliminated under vacuum for one night (t 30-40° C.; 400-700 mm Hg). The sample was hydrated with deionised water to a final concentration of 5 mM (hydration phase). The liposomes were then subjected to sonication for 1 h at 10-second intervals using a sonication bath. The liposomes thus prepared produced unilaminar vesicles.
(§2) The liposome-DNA complex was prepared by mixing the two solutions A and B described here below:
(§3) Solution A: 2.5 μg of plasmid DNA (pCMV/β- Gal, 7200 base pairs, used for the expression of the enzyme β-galactosidase) were diluted sterilely in 50 μl of HBS (HEPES 20 mM; NaCl 150 mM, pH 7.4)
(§4) Solution B: the liposome, prepared according to EXAMPLE 7, was diluted in distilled H2O to a concentration of 1.29 mM and 15 μL of this solution were diluted in 50 µL of distilled H2O).
(§5) The two solutions were mixed by stirring gently and incubated for 10-30 min at room temperature.
(§6) pCMV-β-Gal DNA transfection mediated by cationic liposomes in the various cell lines HeLa, MCF-7, Caco2, and T98-G was performed at different cell densities: 100,000 cells/dish 200.000 cells/dish and 300.000 cells/dish.
(§7) HeLa, MCF-7, Caco2 and T98-G cells were grown for 48 h (37° C., 5% CO2) in the following growth media:
HeLa cells RPMI-1640 (HyQ catalogue), 10% fetal calf serum, 1% L-glutamine, 1% streptomycin, 1% penicillin
(§8) Cells were plated at different densities (100.000 cells/dish, 200.000 cells/dish, 300.000 cells/dish) in Petri dishes (Corning or Falcon) measuring approximately 3 cm in diameter and incubated in 2 mL of medium for 18 h before being treated.
(§9) After replacing the medium with 2 mL of fresh medium, […] of the liposome-DNA complex, prepared as described in EXAMPLE 8, were added to each dish; after gentle stirring, the dishes were placed in a thermostat for 5 h (37° C., 5% CO2). Later, the cells were washed three times with 5 mL PBS buffer (Gibco catalogue) per dish and incubated for 16 h (37° C., 5% CO2).
(§10) After washing the cells three times with 5 mL PBS buffer (Gibco catalogue) per dish, total proteins were extracted and 50 μg of these were loaded per well in order to determine β-galactosidase production by immunoassay (β-Gal ELISA Kit, Boehringer).

[2] = tested on: MCF-7 cells; experiment: pCMV-β-Gal plasmid DNA transfection mediated by ST1223 cationic liposomes, β-galactosidase by ELISA, MCF-7 cells
Procedure: as §1, §2, §3, §4, §5, §6, §7
MCF-7 cells DMEM (Dulbecco Modified Eagle Medium, SIGMA catalogue), 10% fetal calf serum, 1% L-glutamine, 1% streptomycin, 1% penicillin
as §8, §9, §10

[3] = tested on: T98-G cells; experiment: pCMV-β-Gal plasmid DNA transfection mediated by ST1223 cationic liposomes, β-galactosidase by ELISA, T98-G cells
Procedure: as §1, §2, §3, §4, §5, §6, §7
T98-G cells EMEM (Essential Minimum Eagle Medium, SIGMA catalogue), 10% fetal calf serum, 1% L-glutamine, 1% streptomycin, 1% penicillin.
as §8, §9, §10

[4] = tested on: Caco2 cells; experiment: pCMV-β-Gal plasmid DNA transfection mediated by ST1223 cationic liposomes, β-galactosidase by ELISA, Caco2 cells
Procedure: as §1, §2, §3, §4, §5, §6, §7
Caco2 cells EMEM (Essential Minimum Eagle Medium, SIGMA catalogue), 15% fetal calf serum, 1% L-glutamine, 1% streptomycin, 1%, penicillin
as §8, §9, §10

CCCCCCCCCCC(=O)O[C@H](CC(=O)OCCC(F)(F)C(F)(F)C(F)(F)C(F)(F)C(F)(F)C(F)(F)C(F)(F)C(F)(F)F)C[N+](C)(C)C.[Cl-] [ST1223, undecanoyl-L-carnitine chloride 1,1H-2,2H-hepatdecafluorodecyl ester]
cell density of greatest transfection efficiency [1]: 200.000 cells/dish
β-Gal ([1]; density 100.000 cells/dish): 87 pg/dish
β-Gal ([1]; density 200.000 cells/dish): 303 pg/dish
β-Gal ([1]; density 300.000 cells/dish): 83 pg/dish
cell density of greatest transfection efficiency [2]: 200.000 cells/dish
β-Gal ([2]; density 100.000 cells/dish): 234 pg/dish
β-Gal ([2]; density 200.000 cells/dish): 422 pg/dish
β-Gal ([2]; density 300.000 cells/dish): 409 pg/dish
cell density of greatest transfection efficiency [3]: 300.000 cells/dish
β-Gal ([3]; density 100.000 cells/dish): 126 pg/dish
β-Gal ([3]; density 200.000 cells/dish): 330 pg/dish
β-Gal ([3]; density 300.000 cells/dish): 491 pg/dish
cell density of greatest transfection efficiency [4]: 100.000 cells/dish
β-Gal ([4]; density 100.000 cells/dish): 422 pg/dish
β-Gal ([4]; density 200.000 cells/dish): 395 pg/dish
β-Gal ([4]; density 300.000 cells/dish): 385 pg/dish
